Results as given in patent publication US10449200B2, “Combined inhibition of the vitamin D receptor and poly(ADP) ribose polymerase (PARP) in the treatment of cancer” (Institute for Cancer Research, priority 2014, dated 2019).

Legend:
Panc1 cells = assay: Rucaparib clonogenic assay; format: cell-based; conditions: Homo sapiens
Procedure: (§1) Cell viability assays. For clonogenic assays, 1000 cells per well were seeded into 6 well plates on day 0. Cells were treated with gemcitabine at various doses on day 1 for 24 hours, Gemcitabine was washed out on day 2, and cells were allowed to grow for a subsequent 10 days before being fixed (10% methanol+10% acetic acid) and stained with crystal violet (0.4% in 20% ethanol) for colony counting and quantitation. For Rucaparib clonogenic assays, the drug was added at various doses 24 hours after cell plating, and cells were allowed to grow for a subsequent 10 days in the presence of Rucaparib. For TSA clonogenic assays, the drug was added for 4 hours prior to addition of gemcitabine or vehicle for another 18 hours before drugs were washed away, and cells were allowed to grow in drug-free medium for 10 days.
(§2) BxPC3 and Panc1 cells were transfected with control, VDR, and BRCA1 siRNAs and their sensitivity to Rucaparib treatment was compared by clonogenic survival. […] For BXPC3 cells, the IC50s after knockdown of BRCA1 and VDR were 1 and 5 uM, respectively (FIG. 6, A) compared to the control IC50 of 9 μM.

BxPC3 cells [1] = assay: Rucaparib clonogenic assay; format: cell-based; conditions: Homo sapiens
Procedure: as §1, §2

BxPC3 cells [2] = assay: Immunofluorescence of DNA damage foci (phospho-γH2AX, Rad51, 53BP1) after gemcitabine; format: cell-based, human; conditions: BxPC3 VDRkd, TSA (500 nM) treatment, 4 hrs in gemcitabine (50 nM)
Procedure: For Immunofluorescence, cells were plated onto coverslips 24 hours pre-gemcitabine treatment. At different timepoints post gemcitabine treatment, cells were permeablized, fixed (4% paraformaldehyde) and stained. Antibodies to γH2AX (Millipore; 05-636), Rad51 (a gift), and 53BP1 were used. Alexa Fluor-conjugated (488, 555, and 647 nm) secondary antibodies (Molecular probes; A-11029, A-21428, A-21247) were used at a final concentration of 1 and nuclei counterstained with DAPI. Images were captured using a 40× or 63× high NA objective mounted on a semi-automated inverted microscope (Nikon TEi) with a charge-coupled device camera (Photometrics1394) using Nikon Elements 2.0. Exposure times for antibodies were optimized for control samples and identical exposure times used for the experimental samples. Images were quantitated and analyzed using Nikon Elements 2.0. Confocal images were taken using a Leica TCS-SP8 microscope controlled by LAS software (Leica Microsystems).
It was investigated if these repair pathways were abrogated after VDR knockdown by staining for foci formation by phospho-γH2AX, Rad51, and 53BP1, and measuring intensities after gemcitabine treatment (FIGS. 3, 4, and 5). BxPC3 (high VDR expression) and Panc1 (low VDR expression) cells were treated with gemcitabine (50 nM) for 2, 4, 8, and 18 hours, and fixed and stained for phospho-γH2AX, 53BP1, and Rad51. Foci quantitation included counting of nuclei with >5 foci and a separate measurement of the sum intensities of foci that were averaged for 5 separate immunofluorescence experiments. […] Weak but detectable phospho-γH2AX foci were visible within 4 hours of gemcitabine treatment in BxPC3 cells while it took 18 hours for foci to form in Panc1 cells (FIG. 3, A). Similarly, Rad51 foci were visible after 8 hours of gemcitabine treatment in BxPC3 cells compared to 18 hours in Panc1 cells (FIG. 3, A, FIG. 4, and FIG. 5).

Row | IC50 (Panc1 cells; PANC-1, Panc1, control siRNA) | IC50 (Panc1 cells; PANC-1, Panc1, knockdown of BRCA1 (siRNA)) | IC50 (Panc1 cells; PANC-1, Panc1, knockdown of VDR (siRNA)) | IC50 (BxPC3 cells [1]; BXPC-3, BXPC3, knockdown of BRCA1 (siRNA)) | IC50 (BxPC3 cells [1]; BXPC-3, BXPC3, knockdown of VDR (siRNA)) | IC50 (BxPC3 cells [1]; BXPC-3, BxPC3, control siRNA) | SMILES | cells exhibiting Rad51 foci (BxPC3 cells [2])
1 | 4000 nM | 3.5 nM | 400 nM | 1000 nM | 5000 nM | 9000 nM | CNCc1ccc(-c2[nH]c3cc(F)cc4c3c2CCNC4=O)cc1 [Rucaparib] | –
2 | – | – | – | – | – | – | CC(/C=C/C(=O)NO)=C\[C@@H](C)C(=O)c1ccc(N(C)C)cc1 [TSA, trichostatin A] | 89%
